# Reference: patent US8492559B2, “Substituted indole compounds” (Gruenenthal GmbH, priority 2009, dated 2013)
# Target: T1, B1R receptor of the rat (rB1R) (Rattus norvegicus, UniProt P97583)
# T1 construct: expressed in transfected cells; host or cells: CHO K1 cells
# T1 sequence (P97583 1-337): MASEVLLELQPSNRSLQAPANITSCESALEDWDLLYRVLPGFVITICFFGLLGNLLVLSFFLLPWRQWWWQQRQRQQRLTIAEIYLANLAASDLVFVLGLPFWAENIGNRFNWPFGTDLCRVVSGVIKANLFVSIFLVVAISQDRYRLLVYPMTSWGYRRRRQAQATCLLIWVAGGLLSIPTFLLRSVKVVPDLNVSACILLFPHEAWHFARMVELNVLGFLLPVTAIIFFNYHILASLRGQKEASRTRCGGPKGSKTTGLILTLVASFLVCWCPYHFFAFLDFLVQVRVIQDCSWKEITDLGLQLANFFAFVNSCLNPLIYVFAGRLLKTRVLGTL
# Test: Functional investigation on the bradykinin 1 receptor (B1R), FLIPR Ca2+ assay, rB1R cells
# Type: cell-based
# Settings: CHO-K1, 10 μM test substance; CHO K1 cells with rat B1R; agonist Des-Arg9 bradykinin; % of maximum achievable inhibition; read-out: B1R antagonism, rat [10 μM] % inhibition
# Procedure: The indication in % activation is based on the Ca^2+ signal after addition of Lys-Des-[…] bradykinin (0.5 nM) or Des-[…] bradykinin (100 nM). Antagonists lead to a suppression of the Ca^2+ influx following administration of the agonist. The % inhibition in comparison with the maximum achievable inhibition is indicated. […] According to this assay, the Ca^2+ inflow through the channel is quantified with the aid of a Ca^2+-sensitive dye (Fluo-4 type, Molecular Probes Europe BV, Leiden, Netherlands) in a fluorescent imaging plate reader (FLIPR, Molecular Devices, Sunnyvale, USA). […] For functional investigations these cells are plated-out onto black 96-well plates with a clear base (BD Biosciences, Heidelberg, Germany or Greiner, Frickenhausen, Germany) in a density of 20,000-35,000 cells/well. Overnight the cells are incubated at 37° C. and 5% CO2 in culture medium (hB1R cells: Ham's Nutrient Mixture F12, Gibco Invitrogen GmbH, Karlsruhe, Germany or DMEM, Sigma-Aldrich, Taufkirchen, Germany; rB1R cells: D-MEM/F12, Gibco Invitrogen, Karlsruhe, Germany) with 10 vol. % FBS (foetal bovine serum, Gibco Invitrogen GmbH, Karlsruhe, Germany or PAN Biotech GmbH, Aidenbach, Germany). On the following day the cells are loaded with 2.13 μM Fluo-4 (Molecular Probes Europe BV, Leiden, Netherlands) in HBSS buffer (Hank's buffered saline solution, Gibco Invitrogen GmbH, Karlsruhe, Germany) with 2.5 mM probenecid (Sigma-Aldrich, Taufkirchen, Germany) and 10 mM HEPES (Sigma-Aldrich, Taufkirchen, Germany) for 60 min at 37° C. […] Sigma-Aldrich, Taufkirchen, Germany), 5.6 mM glucose and 0.05% gelatine (Merck KGaA, Darmstadt, Germany) is added. After a further incubation of 20 minutes at room temperature, the plates are inserted into the FLIPR for Ca^2+ measurement. Alternatively they are washed with buffer A (15 mM HEPES, 80 mM NaCl, 5 mM KCl, 1.2 mM CaCl2, 0.7 mM MgSO4, 2 g/l glucose, 2.5 mM probenecid) and loaded with buffer A with added 2.5 μM Fluo-4 and 0.025% Pluronic F127 (Sigma-Aldrich, Taufkirchen, Germany). The cells are then washed twice with buffer A and incubated for 30 minutes with buffer A, which additionally contains 0.05% BSA and 0.05% gelatine, at room temperature and then used for Ca^2+ measurement in the FLIPR. The Ca^2+-dependent fluorescence is measured here before and after addition of substances (λex=488 nm, λem=540 nm). The quantification is performed by measuring the highest fluorescence intensity (FC, fluorescence counts) over time. The FLIPR protocol comprises two additions of substance. […] Lys-Des-[…] bradykinin>=50 nM; rB1R: […] Antagonists lead to a suppression of the Ca^2+ inflow. The % inhibition in comparison with the maximum achievable inhibition is calculated. The substances are added in varying concentrations in order to determine the IC50 value. Double or triple determinations (n=2 or n=3) are performed and these are repeated in at least one further independent experiment (N>=2).
row,SMILES,inhibition at 10 µM
1,"CN(CCCN1CCC(c2cccs2)(N(C)C)CC1)C(=O)Cn1ccc2cccc(NS(=O)(=O)c3cccc4ccccc34)c21 [G_CC-25, N-[3-(4-Dimethylamino-4-thiophen-2-yl-piperidin-1-yl)-propyl]-N-methyl-2-[7-[(naphthalen-1-ylsulfonyl)amino]-1H-indol-1-yl]-acetamide]",58%
2,"Cc1cc(S(=O)(=O)Nc2cccc3ccn(CC(=O)N(C)CCCN4CCC(c5cccs5)(N(C)C)CC4)c23)c(C)cc1Cl [G_CC-26, 2-[7-[[(4-Chloro-2,5-dimethyl-phenyl)sulfonyl]amino]-1H-indol-1-yl]-N-[3-(4-dimethylamino-4-thiophen-2-yl-piperidin-1-yl)-propyl]-N-methyl-acetamide]",81%
3,"Cc1cc(S(=O)(=O)Nc2cccc3ccn(CC(=O)NCCN4CCC(c5cccs5)(N(C)C)CC4)c23)c(C)cc1Cl [G_CC-27, 2-[7-[[(4-Chloro-2,5-dimethyl-phenyl)sulfonyl]amino]-1H-indol-1-yl]-N-[2-(4-dimethylamino-4-thiophen-2-yl-piperidin-1-yl)-ethyl]-acetamide]",56%
4,"Cc1cc(S(=O)(=O)Nc2cccc3ccn(CC(=O)NCCC4CCN(c5ccncc5)CC4)c23)c(C)cc1Cl [G_CC-28, 2-[7-[[(4-Chloro-2,5-dimethyl-phenyl)sulfonyl]amino]-1H-indol-1-yl]-N-[2-(1-pyridin-4-yl-piperidin-4-yl)-ethyl]-acetamide]",82%
5,"COc1cc(C)c(S(=O)(=O)Nc2ccc3ccn(CC(=O)NCCN4CCC(c5cccs5)(N(C)C)CC4)c3c2)c(C)c1 [G_CC-30, N-[2-(4-Dimethylamino-4-thiophen-2-yl-piperidin-1-yl)-ethyl]-2-[6-[[(4-methoxy-2,6-dimethyl-phenyl)sulfonyl]amino]-1H-indol-1-yl]-acetamide]",53%
6,"O=C(Cn1ccc2ccc(NS(=O)(=O)c3ccccc3C(F)(F)F)cc21)N1CCC2(CC1)CCN(c1ccncc1)CC2 [G_CC-37, N-[1-[2-Oxo-2-(3-pyridin-4-yl-3,9-diazaspiro[5.5]undecan-9-yl)-ethyl]-1H-indol-6-yl]-2-(trifluoromethyl)-benzenesulfonic acid amide]",91%
7,"O=C(Cn1ccc2cccc(NS(=O)(=O)c3cccc4ccccc34)c21)N1CCC2(CC1)CCN(c1ccncc1)CC2 [G_CC-38, N-[1-[2-Oxo-2-(3-pyridin-4-yl-3,9-diazaspiro[5.5]undecan-9-yl)-ethyl]-1H-indol-7-yl]-naphthalene-1-sulfonic acid amide]",96%
8,"Cc1cc(S(=O)(=O)Nc2cccc3ccn(CC(=O)N4CCC5(CC4)CCN(c4ccncc4)CC5)c23)c(C)cc1Cl [G_CC-39, 4-Chloro-2,5-dimethyl-N-[1-[2-oxo-2-(3-pyridin-4-yl-3,9-diazaspiro[5.5]undecan-9-yl)-ethyl]-1H-indol-7-yl]-benzenesulfonic acid amide]",95%
9,"COc1cc(C)c(S(=O)(=O)Nc2cccc3ccn(CCC(=O)N4CCN(C5CCN(C)CC5)CC4)c23)c(C)c1 [G_CC-40, 4-Methoxy-2,6-dimethyl-N-[1-[3-[4-(1-methyl-piperidin-4-yl)-piperazin-1-yl]-3-oxo-propyl]-1H-indol-7-yl]-benzenesulfonic acid amide]",86%
10,"COc1cc(C)c(S(=O)(=O)Nc2cccc3ccn(CCC(=O)N4CCC(N5CCN(C)CC5)CC4)c23)c(C)c1 [G_CC-42, 4-Methoxy-2,6-dimethyl-N-[1-[3-[4-(4-methyl-piperazin-1-yl)-piperidin-1-yl]-3-oxo-propyl]-1H-indol-7-yl]-benzenesulfonic acid amide]",66%

# Further lines, results first:
row,inhibition at 10 µM,SMILES
1,59%,"COc1cc(C)c(S(=O)(=O)Nc2ccc3ccn(CCC(=O)NCCN4CCC(c5cccs5)(N(C)C)CC4)c3c2)c(C)c1 [G_CC-22, N-[2-(4-Dimethylamino-4-thiophen-2-yl-piperidin-1-yl)-ethyl]-3-[6-[[(4-methoxy-2,6-dimethyl-phenyl)sulfonyl]amino]-1H-indol-1-yl]-propionamide]"
2,63%,"COc1cc(C)c(S(=O)(=O)Nc2ccc3ccn(CCC(=O)NCCC4CCN(c5ccncc5)CC4)c3c2)c(C)c1 [G_CC-23, 3-[6-[[(4-Methoxy-2,6-dimethyl-phenyl)sulfonyl]amino]-1H-indol-1-yl]-N-[2-(1-pyridin-4-yl-piperidin-4-yl)-ethyl]-propionamide]"
3,89%,"Cc1cc(S(=O)(=O)Nc2ccc3ccn(CC(=O)NCCC4CCN(c5ccncc5)CC4)c3c2)c(C)cc1Cl [G_CC-24, 2-[6-[[(4-Chloro-2,5-dimethyl-phenyl)sulfonyl]amino]-1H-indol-1-yl]-N-[2-(1-pyridin-4-yl-piperidin-4-yl)-ethyl]-acetamide]"
4,92%,"COc1cc(C)c(S(=O)(=O)Nc2ccc3ccn(CC(=O)N(C)CCCN4CCC(c5cccs5)(N(C)C)CC4)c3c2)c(C)c1 [G_CC-29, N-[3-(4-Dimethylamino-4-thiophen-2-yl-piperidin-1-yl)-propyl]-2-[6-[[(4-methoxy-2,6-dimethyl-phenyl)sulfonyl]amino]-1H-indol-1-yl]-N-methyl-acetamide]"
5,91%,"COc1cc(C)c(S(=O)(=O)Nc2cccc3ccn(CC(=O)N4CCC5(CC4)C(=O)N(C)CC5c4ccc(F)cc4)c23)c(C)c1 (centres unmarked) [G_CC-31, N-[1-[2-[1-(4-Fluorophenyl)-3-methyl-4-oxo-3,8-diazaspiro[4.5]decan-8-yl]-2-oxo-ethyl]-1H-indol-7-yl]-4-methoxy-2,6-dimethyl-benzenesulfonic acid amide]"
6,71%,"COc1cc(C)c(S(=O)(=O)Nc2ccc3ccn(CC(=O)N4CC5CC4CN5Cc4ccc(F)cc4)c3c2)c(C)c1 (centres unmarked) [G_CC-33, N-[1-[2-[2-[(4-Fluorophenyl)-methyl]-2,5-diazabicyclo[2.2.1]heptan-5-yl]-2-oxo-ethyl]-1H-indol-6-yl]-4-methoxy-2,6-dimethyl-benzenesulfonic acid amide]"
7,58%,"COc1cc(C)c(S(=O)(=O)Nc2cccc3ccn(CC(=O)N4CC5CC4CN5Cc4ccncc4)c23)c(C)c1 (centres unmarked) [G_CC-34, 4-Methoxy-2,6-dimethyl-N-[1-[2-oxo-2-[2-(pyridin-4-yl-methyl)-2,5-diazabicyclo[2.2.1]heptan-5-yl]-ethyl]-1H-indol-7-yl]-benzenesulfonic acid amide]"
8,72%,"COc1cc(C)c(S(=O)(=O)Nc2ccc3ccn(CCC(=O)N4CCC5(CC4)CCN(c4ccncc4)CC5)c3c2)c(C)c1 [G_CC-35, 4-Methoxy-2,6-dimethyl-N-[1-[3-oxo-3-(3-pyridin-4-yl-3,9-diazaspiro[5.5]undecan-9-yl)-propyl]-1H-indol-6-yl]-benzenesulfonic acid amide]"
9,63%,"Cc1cc(S(=O)(=O)Nc2ccc3ccn(CC(=O)N4CCC5(CC4)CCN(c4ccncc4)CC5)c3c2)c(C)cc1Cl [G_CC-36, 4-Chloro-2,5-dimethyl-N-[1-[2-oxo-2-(3-pyridin-4-yl-3,9-diazaspiro[5.5]undecan-9-yl)-ethyl]-1H-indol-6-yl]-benzenesulfonic acid amide]"
10,76%,"COc1cc(C)c(S(=O)(=O)Nc2cccc3ccn(CCC(=O)N4CCC(CCN5CCCC5)CC4)c23)c(C)c1 [G_CC-41, 4-Methoxy-2,6-dimethyl-N-[1-[3-oxo-3-[4-(2-pyrrolidin-1-yl-ethyl)-piperidin-1-yl]-propyl]-1H-indol-7-yl]-benzenesulfonic acid amide]"
